Measured values reported in patent US20240043439A1, “COMPOUNDS AS C5AR INHIBITORS” (Kira Pharmaceuticals (Suzhou) Ltd., priority 2020, published 2024).

What was measured:
C5aR = C5aR (Homo sapiens (Human), UniProt P21730); test: Calcium mobilization (U937/C5aR or HEK293/C5aR cells, FLIPR); assay type: cell-based; settings: agonist human C5a at EC80, FLIPR
Procedure: U937/C5aR cells or HEK293/C5aR cells were washed by PBS and suspended in growth media at the density of 1×10^6 cells/ml. […] to the 384-well plate and culture for overnight. Transfer 250 nl compound solution to the cell plate using Echo, incubate for 60 min. Cells were added with Fluo-4 Direct™ dye and incubate for 50 min at 37° C. 5% CO2 and 10 m at room temperature. Place the cell plate into […] (Molecular Devices). Transfer 10 μl of 5-fold EC80 concentrations of agonist human C5a to the cell plates.

[1] = molecular target: human C5a receptor (C5aR) (Homo sapiens (Human), UniProt P21730); test: Inhibition of C5a-C5aR binding (biotinylated human C5a, U937/C5aR cells, FACS)
Sequence of human C5a receptor (C5aR) (P21730 whole entry): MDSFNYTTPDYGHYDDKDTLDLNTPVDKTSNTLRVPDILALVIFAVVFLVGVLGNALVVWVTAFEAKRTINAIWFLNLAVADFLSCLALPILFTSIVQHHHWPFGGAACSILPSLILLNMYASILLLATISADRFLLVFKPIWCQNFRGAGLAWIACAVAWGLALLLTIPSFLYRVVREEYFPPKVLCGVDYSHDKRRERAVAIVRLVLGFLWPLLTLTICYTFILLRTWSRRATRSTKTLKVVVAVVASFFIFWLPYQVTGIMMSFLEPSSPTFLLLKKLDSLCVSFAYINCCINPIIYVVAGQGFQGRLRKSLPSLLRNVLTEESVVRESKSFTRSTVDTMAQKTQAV
Procedure: U937 cells were originally obtained from the American Type Culture Collection (ATCC) and transfected with human C5a receptor (C5aR). U937/C5aR cells were cultured at 37° C., 5% CO2 in RPMI1640 (Gibco) supplemented with 10% FBS (Gibco) and 350 µg/ml Geneticin (Gibco) and passaged every 3 days to maintain the density range from […] to 2×10^6 cells/ml.
Human C5a biotinylation was performed according to the procedure provided by manufacturer (Thermo Scientific, A39257). 10 mM solution of Sulfo-NHS-LC-Biotin was prepared by adding 180μl ultrapure H2O to the 1 mg vial immediately. 12 μl 10 mM biotin reagent was added to […] human C5a solution, gently pipetted for 3 seconds, and incubated on ice for 2 hours. Amicon ultra-0.5 centrifuge filter device (Millipore, UFC5003BK) was pre-rinsed with Milli-Q H2O, centrifuged at 14000 g for 5 min immediately before use. Up to […] sample (diluted by PBS) was added to the device and capped. The device was spinned at 14000 g for approximately 5 min. 250 μl PBS was added to the filter device, spinned at 14000 g for 5 min, and repeatedly washed 6 times. The filter device was separated from the microcentrifuge tube and placed upside down in a clean microcentrifuge tube, spinned for 2 min at 1000 g to transfer the concentrated sample from the device to the tube.
U937/C5aR cells were collected and washed twice by PBS, cells were suspended in PBS+0.1% BSA buffer at the density of 3×10^6 cells/ml. 100 μl cell suspension was added to a 96 well microplate. 50 μl compound diluted in assay buffer and 50 μl biotinylated ligand human C5a (30 nM) were added to corresponding wells in order and the plate was incubated on ice for 120 min and then centrifuged at 1000 rpm for 3-5 min at 4° C. Supernatant was removed and cells were washed by pre-cold PBS twice. 100 μl FITC conjugated streptavidin was added to cells, incubated on ice for another 30 min, and then centrifuged at 1000 rpm for 3-5 min at 4° C. Supernatant was removed and cells were washed by pre-cold PBS twice. 150 μl PBS was added to suspend the cells and signals were detected by FACS (Beckman, Cytoflex).

Sequence of C5aR (P21730 whole entry): as above

IC50 (C5aR) [µM] | IC50 [1] [µM] | Structure (SMILES)
2 to 10 | 0.5 to 2 | Cc1ccc(NC(=O)[C@H]2CCCN(c3nccc4cccnc34)[C@H]2c2ccc(NC3CCCC3)cc2)cc1C(F)(F)F [Compound 6, (2R,3S)-2-(4-(cyclopentylamino)phenyl)-N-(4-methyl-3-(trifluoromethyl)phenyl)-1-(1,7-naphthyridin-8-yl)piperidine-3-carboxamide]
2 to 10 | 0.5 to 2 | Cc1ccc(NC(=O)[C@H]2CCCN(S(=O)(=O)c3c(C)cccc3C)[C@H]2c2ccc(NC3CCCC3)cc2)cc1C(F)(F)F [Compound 11, (2R,3S)-2-(4-(cyclopentylamino)phenyl)-1-((2,6-dimethylphenyl)sulfonyl)-N-(4-methyl-3-(trifluoromethyl)phenyl)piperidine-3-carboxamide]
2 to 10 | 2 to 5 | Cc1ccc(NC(=O)[C@H]2CCCN(S(=O)(=O)c3c(C)noc3C)[C@H]2c2ccc(NC3CCCC3)cc2)cc1C(F)(F)F [Compound 8, (2R,3S)-2-(4-(cyclopentylamino)phenyl)-1-((3,5-dimethylisoxazol-4-yl)sulfonyl)-N-(4-methyl-3-(trifluoromethyl)phenyl)piperidine-3-carboxamide]
2 to 10 | 0.5 to 2 | Cc1cccc(F)c1C(=O)N1[C@@H]2CCC[C@@H]2C[C@H](C(=O)Nc2ccc(Cl)c(Cl)c2)[C@@H]1c1ccc(NC2CCCC2)cc1 (racemic) [Compound 64, cis-2-(4-(cyclopentylamino)phenyl)-N-(3,4-dichlorophenyl)-1-(2-fluoro-6-methylbenzoyl)octahydro-1H-cyclopenta[b]pyridine-3-carboxamide]
> 10 | 2 to 5 | Cc1cccc(F)c1C(=O)N1C2CCC[C@@H]2C[C@H](C(=O)Nc2ccc3ncn(C)c3c2)[C@@H]1c1ccc(NC2CCCC2)cc1 (mixture of isomers) [Compound 74, cis-2-(4-(cyclopentylamino)phenyl)-1-(2-fluoro-6-methylbenzoyl)-N-(1-methyl-1H-benzo[d]imidazol-6-yl)octahydro-1H-cyclopenta[b]pyridine-3-carboxamide]
0.5 to 2 | < 0.05 | Cc1ccc(NC(=O)[C@H]2C[C@H]3CCC[C@H]3N(C(=O)c3c(C)cccc3F)[C@H]2c2ccc(NC3CCCC3)cc2)cn1 (racemic) [Compound 63, cis-2-(4-(cyclopentylamino)phenyl)-1-(2-fluoro-6-methylbenzoyl)-N-(6-methylpyridin-3-yl)octahydro-1H-cyclopenta[b]pyridine-3-carboxamide]
0.05 to 0.5 | < 0.05 | Cc1cccc(F)c1C(=O)N1C2CCC[C@@H]2C[C@H](C(=O)Nc2cccc(F)c2)[C@@H]1c1ccc(NC2CCCC2)cc1 (mixture of isomers) [Compound 56, cis-2-(4-(cyclopentylamino)phenyl)-1-(2-fluoro-6-methylbenzoyl)-N-(3-fluorophenyl)octahydro-1H-cyclopenta[b]pyridine-3-carboxamide]
2 to 10 | < 0.05 | Cc1cccc(F)c1C(=O)N1[C@@H]2CCC[C@@H]2C[C@H](C(=O)Nc2ccc3c(c2)OCCO3)[C@@H]1c1ccc(NC2CCCC2)cc1 (racemic) [Compound 71, cis-2-(4-(cyclopentylamino)phenyl)-N-(2,3-dihydrobenzo[b][1,4]dioxin-6-yl)-1-(2-fluoro-6-methylbenzoyl)octahydro-1H-cyclopenta[b]pyridine-3-carboxamide]
2 to 10 | > 5 | Cc1ccc(NC(=O)[C@H]2CCCN[C@H]2c2ccc(NC3CCCC3)cc2)cc1C(F)(F)F [Compound 200, (2R,3S)-2-(4-(cyclopentylamino)phenyl)-N-(4-methyl-3-(trifluoromethyl)phenyl)piperidine-3-carboxamide]
2 to 10 | 2 to 5 | Cc1ccc(S(=O)(=O)N2CCC[C@H](C(=O)Nc3ccc(C)c(C(F)(F)F)c3)[C@@H]2c2ccc(NC3CCCC3)cc2)c(C)c1 [Compound 9, (2R,3S)-2-(4-(cyclopentylamino)phenyl)-1-((2,4-dimethylphenyl)sulfonyl)-N-(4-methyl-3-(trifluoromethyl)phenyl)piperidine-3-carboxamide]
2 to 10 | 2 to 5 | Cc1cccc(F)c1C(=O)N1[C@@H]2CCC[C@@H]2C[C@H](C(=O)NC2CCOCC2)[C@@H]1c1ccc(NC2CCCC2)cc1 [Compound 52, (2R,3S,4aR,7aR)-2-(4-(cyclopentylamino)phenyl)-1-(2-fluoro-6-methylbenzoyl)-N-(tetrahydro-2H-pyran-4-yl)octahydro-1H-cyclopenta[b]pyridine-3-carboxamide]
> 10 | 2 to 5 | Cc1ccc(NC(=O)[C@H]2CCCN(S(=O)(=O)c3cccc(Cl)c3C)[C@H]2c2ccc(NC3CCCC3)cc2)cc1C(F)(F)F [Compound 16, (2R,3S)-1-((3-chloro-2-methylphenyl)sulfonyl)-2-(4-(cyclopentylamino)phenyl)-N-(4-methyl-3-(trifluoromethyl)phenyl)piperidine-3-carboxamide]
2 to 10 | 2 to 5 | Cc1cccc(F)c1C(=O)N1C2COC[C@@H]2C[C@H](C(=O)Nc2ccc(N(C)C)cc2)[C@@H]1c1ccc(NC2CCOCC2)cc1 (mixture of isomers) [Compound 136, cis-N-(4-(dimethylamino)phenyl)-1-(2-fluoro-6-methylbenzoyl)-2-(4-((tetrahydro-2H-pyran-4-yl)amino)phenyl)octahydrofuro[3,4-b]pyridine-3-carboxamide]
0.05 to 0.5 | 0.05 to 0.5 | Cc1cccc(F)c1C(=O)N1[C@@H]2CCC[C@@H]2C[C@H](C(=O)Nc2ccc(F)c(F)c2)[C@@H]1c1ccc(NC2CCCC2)cc1 (relative stereo) [Compound 65, cis-2-(4-(cyclopentylamino)phenyl)-N-(3,4-difluorophenyl)-1-(2-fluoro-6-methylbenzoyl)octahydro-1H-cyclopenta[b]pyridine-3-carboxamide]
 | 0.05 to 0.5 | Cc1cccc(F)c1C(=O)N1[C@@H]2COC[C@@H]2C[C@H](C(=O)Nc2cnc3cnn(C)c3c2)[C@@H]1c1ccc(NC2CCCC2)cc1 [Compound 123, (2R,3S,4aR,7aS)-2-(4-(cyclopentylamino)phenyl)-1-(2-fluoro-6-methylbenzoyl)-N-(1-methyl-1H-pyrazolo[4,3-b]pyridin-6-yl)octahydrofuro[3,4-b]pyridine-3-carboxamide]
 | 0.5 to 2 | Cc1cccc(F)c1C(=O)N1[C@@H]2CCC[C@@H]2C[C@H](C(=O)Nc2ccc3c(cnn3CCF)c2)[C@@H]1c1ccc(NC2CCOCC2)cc1 [Compound 109, (2R,3S,4aR,7aR)-1-(2-fluoro-6-methylbenzoyl)-N-(1-(2-fluoroethyl)-1H-indazol-5-yl)-2-(4-((tetrahydro-2H-pyran-4-yl)amino)phenyl)octahydro-1H-cyclopenta[b]pyridine-3-carboxamide]
 | 0.5 to 2 | Cc1cccc(F)c1C(=O)N1[C@@H]2CCC[C@@H]2C[C@H](C(=O)Nc2ccc3nn(C)cc3c2)[C@@H]1c1ccc(NC2CCOCC2)cc1 [Compound 97, (2R,3S,4aR,7aR)-1-(2-fluoro-6-methylbenzoyl)-N-(2-methyl-2H-indazol-5-yl)-2-(4-((tetrahydro-2H-pyran-4-yl)amino)phenyl)octahydro-1H-cyclopenta[b]pyridine-3-carboxamide]
 | 2 to 5 | Cc1cccc(F)c1C(=O)N1[C@@H]2CCC[C@@H]2C[C@H](C(=O)Nc2ccc3nn(CCN(C)C)cc3c2)[C@@H]1c1ccc(NC2CCOCC2)cc1 [Compound 105, (2R,3S,4aR,7aR)-N-(2-(2-(dimethylamino)ethyl)-2H-indazol-5-yl)-1-(2-fluoro-6-methylbenzoyl)-2-(4-((tetrahydro-2H-pyran-4-yl)amino)phenyl)octahydro-1H-cyclopenta[b]pyridine-3-carboxamide]

Structure (SMILES) | IC50 (C5aR) [µM] | IC50 [1] [µM]
Cc1cccc(F)c1C(=O)N1C(c2ccc(N(C)C3CCCC3)cc2)C(C(=O)Nc2ccc3c(c2)CCN(C)C3)C[C@@H]2CCC[C@@H]21 (relative stereo) [Compound 201, cis-2-(4-(cyclopentyl(methyl)amino)phenyl)-1-(2-fluoro-6-methylbenzoyl)-N-(2-methyl-1,2,3,4-tetrahydroisoquinolin-6-yl)octahydro-1H-cyclopenta[b]pyridine-3-carboxamide] | 2 to 10 | > 5
